Results: patent US8524902B2, “[1,2,4]triazolo[4,3-f]pteridines useful as inhibitors of protein kinases” (Vertex Pharmaceuticals Incorporated, priority 2006, dated 2013)

target: T1, Plk1 (Homo sapiens, UniProt P53350); test: Plk1 inhibition assay (radioactive-phosphate incorporation); format: biochemical; conditions: Ki(app) from [γ-33P]ATP incorporation, 25° C.
T1 construct: in the presence of 15 nM Plk1 (A20-K338)
Method: Compounds of the present invention may be evaluated as inhibitors of human PLK kinase using the following assays.
Compounds were screened for their ability to inhibit Plk1 using a radioactive-phosphate incorporation assay. Assays were carried out in a mixture of 25 mM HEPES (pH 7.5), 10 mM MgCl2, and 1 mM DTT. Final substrate concentrations were 50 μM [γ-33P]ATP (136 mCi 33P ATP/mmol ATP, Amersham Pharmacia Biotech/Sigma Chemicals) and 10 μM peptide (SAM68 protein Δ332-443). Assays were carried out at 25° C. in the presence of 15 nM Plk1 (A20-K338). An assay stock buffer solution was prepared containing all of the reagents listed above, with the exception of ATP and the test compound of interest. 30 μL of the stock solution was placed in a 96 well plate followed by addition of 2 μL of DMSO stock containing serial dilutions of the test compound (typically starting from a final concentration of 10 μM with 2-fold serial dilutions) in duplicate (final DMSO concentration 5%). The plate was pre-incubated for 10 minutes at 25° C. and the reaction initiated by addition of 8 μL [γ33P]ATP (final concentration 50 μM).
(§1) The reaction was stopped after 60 minutes by the addition of 100 μL 0.14M phosphoric acid. A multiscreen phosphocellulose filter 96-well plate (Millipore, Cat no. MAPHN0B50) was pretreated with 100 μL 0.2M phosphoric acid prior to the addition of 125 μL of the stopped assay mixture. The plate was washed with 4×200 μL 0.2M phosphoric acid. After drying, 100 μL Optiphase ‘SuperMix’ liquid scintillation cocktail (Perkin Elmer) was added to the well prior to scintillation counting (1450 Microbeta Liquid Scintillation Counter, Wallac).
After removing mean background values for all of the data points, Ki(app) data were calculated from non-linear regression analysis of the initial rate data using the Prism software package (GraphPad Prism version 3.0cx for Macintosh, GraphPad Software, San Diego Calif., USA).
Compounds were screened for their ability to inhibit Plk1 using a radioactive-phosphate incorporation assay. Assays were carried out in a mixture of 25 mM HEPES (pH 7.5), 10 mM MgCl2, 0.1% BSA, and 2 mM DTT. Final substrate concentrations were 150 μM (350 μM for determining values of <1 nM) [γ-33P]ATP (115 mCi 33P ATP/mmol ATP, Amersham Pharmacia Biotech/Sigma Chemicals) and 300 μM (450 μM for determining values of <1 nM) peptide (KKKISDELMDATFADQEAK) SEQ. ID NO. 1. Assays were carried out at 25° C. in the presence of 4 nM (1 nM for determining values of <1 nM) Plk1. An assay stock buffer solution was prepared containing all of the reagents listed above, with the exception of ATP and the test compound of interest. 30 μL of the stock solution was placed in a 96 well plate followed by addition of 2 μL of DMSO stock containing serial dilutions of the test compound (typically starting from a final concentration of 10 μM with 2-fold serial dilutions) in duplicate (final DMSO concentration 5%). The plate was pre-incubated for 10 minutes at 25° C. and the reaction initiated by addition of 8 μl [γ-33P]ATP (final concentration 150 μM (350 μM for determining values of <1 nM))).
as §1, with “90” for “60”, “minutes (240 minutes for determining values of <1 nM)” for “minutes”

T1 sequence (P53350 20-338): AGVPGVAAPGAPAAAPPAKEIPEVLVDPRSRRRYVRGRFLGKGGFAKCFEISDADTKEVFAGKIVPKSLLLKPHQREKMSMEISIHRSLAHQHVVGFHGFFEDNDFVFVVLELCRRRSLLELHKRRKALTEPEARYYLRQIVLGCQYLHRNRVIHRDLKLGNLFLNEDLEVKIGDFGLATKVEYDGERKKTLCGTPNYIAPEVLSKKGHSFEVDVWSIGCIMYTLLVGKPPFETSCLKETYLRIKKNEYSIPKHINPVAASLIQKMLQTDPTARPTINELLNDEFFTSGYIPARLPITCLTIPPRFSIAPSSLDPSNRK

SMILES	Ki [nM]
CC[C@@H]1c2nncn2-c2cnc(Nc3ccc(C(=O)NC)cc3F)nc2N1C1CCCC1 [Compound I-16, (R)-4-(5-cyclopentyl-4-ethyl-4,5-dihydro-[1,2,4]triazolo[4,3-f]pteridin-7-ylamino)-3-fluoro-N-methylbenzamide]	< 10
CC[C@@H]1c2nnc(C)n2-c2cnc(Nc3ccc(C(=O)NC4CC4)cc3OC)nc2N1C1CCCC1 [Compound I-13, (R)-4-(5-cyclopentyl-4-ethyl-1-methyl-4,5-dihydro-[1,2,4]triazolo[4,3-f]pteridin-7-ylamino)-N-cyclopropyl-3-methoxybenzamide]	< 10
CCNC(=O)c1ccc(Nc2ncc3c(n2)N(C2CCCC2)[C@H](CC)c2nncn2-3)c(OC)c1 [Compound I-18, (R)-4-(5-cyclopentyl-4-ethyl-4,5-dihydro-[1,2,4]triazolo[4,3-f]pteridin-7-ylamino)-N-ethyl-3-methoxybenzamide]	< 10
CC[C@@H]1c2nncn2-c2cnc(Nc3ccccc3)nc2N1C1CCCC1 [Compound I-22, (R)-5-cyclopentyl-4-ethyl-N-phenyl-4,5-dihydro-[1,2,4]triazolo[4,3-f]pteridin-7-amine]	< 10
CC[C@@H]1c2nncn2-c2cnc(Nc3ccc(C(=O)NC4CCN(C)CC4)cc3OC)nc2N1C1CCCC1 [Compound I-2, 4-((R)-5-cyclopentyl-4-ethyl-4,5-dihydro-[1,2,4]triazolo[4,3-f]pteridin-7-ylamino)-3-methoxy-N-(1-methylpiperidin-4-yl)benzamide]	< 10
CC[C@@H]1c2nncn2-c2cnc(Nc3ccc(F)cc3)nc2N1C1CCCC1 [Compound I-35, (R)-5-cyclopentyl-4-ethyl-N-(4-fluorophenyl)-4,5-dihydro-[1,2,4]triazolo[4,3-f]pteridin-7-amine]	< 10
CC[C@@H]1c2nncn2-c2cnc(Nc3ccc(C(=O)NC)cc3OC)nc2N1C1CCC1 [Compound I-29, (R)-4-(5-cyclobutyl-4-ethyl-4,5-dihydro-[1,2,4]triazolo[4,3-f]pteridin-7-ylamino)-3-methoxy-N-methylbenzamide]	< 10
CC[C@@H]1c2nncn2-c2cnc(Nc3ccc(N4CCN(C)CC4)cc3)nc2N1C1CCCC1 [Compound I-32, (R)-5-cyclopentyl-4-ethyl-N-(4-(4-methylpiperazin-1-yl)phenyl)-4,5-dihydro-[1,2,4]triazolo[4,3-f]pteridin-7-amine]	< 10
CC[C@@H]1c2nncn2-c2cnc(Nc3ccc(N4CCCC4)cc3)nc2N1C1CCCC1 [Compound I-42, (R)-5-cyclopentyl-4-ethyl-N-(4-(pyrrolidin-1-yl)phenyl)-4,5-dihydro-[1,2,4]triazolo[4,3-f]pteridin-7-amine]	< 10
CC[C@@H]1c2nncn2-c2cnc(Nc3ccc(C(=O)NC)cc3OC)nc2N1C1CCCC1 [Compound I-1, 4-((R)-5-cyclopentyl-4-ethyl-4,5-dihydro-[1,2,4]triazolo[4,3-f]pteridin-7-ylamino)-3-methoxy-N-methylbenzamide]	< 10
CC[C@@H]1c2nncn2-c2cnc(Nc3ccc(C(=O)NC)cc3C(F)(F)F)nc2N1C1CCCC1 [Compound I-21, (R)-4-(5-cyclopentyl-4-ethyl-4,5-dihydro-[1,2,4]triazolo[4,3-f]pteridin-7-ylamino)-N-methyl-3-(trifluoromethyl)benzamide]	< 10
CC[C@@H]1c2nncn2-c2cnc(Nc3ccc(C(=O)NC)cc3COC)nc2N1C1CCCC1 [Compound I-30, (R)-4-(5-cyclopentyl-4-ethyl-4,5-dihydro-[1,2,4]triazolo[4,3-f]pteridin-7-ylamino)-3-(methoxymethyl)-N-methylbenzamide]	< 10
CC[C@@H]1c2nncn2-c2cnc(Nc3ccc(C(=O)NC4CC(F)(F)C4)cc3OC)nc2N1C1CCCC1 [Compound I-17, (R)-4-(5-cyclopentyl-4-ethyl-4,5-dihydro-[1,2,4]triazolo[4,3-f]pteridin-7-ylamino)-N-(3,3-difluorocyclobutyl)-3-methoxybenzamide]	< 10
CC[C@@H]1c2nncn2-c2cnc(Nc3ccc(C(=O)NC4CC4)s3)nc2N1C1CCCC1 [Compound I-15, (R)-5-(5-cyclopentyl-4-ethyl-4,5-dihydro-[1,2,4]triazolo[4,3-f]pteridin-7-ylamino)-N-cyclopropylthiophene-2-carboxamide]	< 10
CC[C@@H]1c2nncn2-c2cnc(Nc3ccc(C(=O)N(C)C)cc3C)nc2N1C1CCCC1 [Compound I-5, 4-((R)-5-cyclopentyl-4-ethyl-4,5-dihydro-[1,2,4]triazolo[4,3]pteridin-7-ylamino)-N,N,3-trimethylbenzamide]	< 10
CC[C@@H]1c2nncn2-c2cnc(Nc3ccncc3)nc2N1C1CCCC1 [Compound I-23, (R)-5-cyclopentyl-4-ethyl-N-(pyridin-4-yl)-4,5-dihydro-[1,2,4]triazolo[4,3-f]pteridin-7-amine]	< 10
CC[C@@H]1c2nncn2-c2cnc(NCc3ccccc3)nc2N1C1CCCC1 [Compound I-31, (R)—N-benzyl-5-cyclopentyl-4-ethyl-4,5-dihydro-[1,2,4]triazolo[4,3-f]pteridin-7-amine]	10 to 100
CC[C@@H]1c2nncn2-c2cnc(Nc3cccnc3)nc2N1C1CCCC1 [Compound I-25, (R)-5-cyclopentyl-4-ethyl-N-(pyridin-3-yl)-4,5-dihydro-[1,2,4]triazolo[4,3-f]pteridin-7-amine]	< 10
CC[C@@H]1c2nncn2-c2cnc(Nc3ccc(N4CCOCC4)cc3)nc2N1C1CCCC1 [Compound I-34, (R)-5-cyclopentyl-4-ethyl-N-(4-morpholinophenyl)-4,5-dihydro-[1,2,4]triazolo[4,3-f]pteridin-7-amine]	< 10
CC[C@@H]1c2nncn2-c2cnc(Nc3ccc(C(=O)NC)cc3C(F)F)nc2N1C1CCCC1 [Compound I-24, (R)-4-(5-cyclopentyl-4-ethyl-4,5-dihydro-[1,2,4]triazolo[4,3-f]pteridin-7-ylamino)-3-(difluoromethyl)-N-methylbenzamide]	< 10
CC[C@@H]1c2nncn2-c2cnc(Nc3ccc(OC(F)F)cc3)nc2N1C1CCCC1 [Compound I-33, (R)-5-cyclopentyl-N-(4-(difluoromethoxy)phenyl)-4-ethyl-4,5-dihydro-[1,2,4]triazolo[4,3-f]pteridin-7-amine]	< 10
CC[C@@H]1c2nncn2-c2cnc(Nc3ccc(C(=O)NC4CC4)cc3OC)nc2N1C1CCCC1 [Compound I-8, (R)-4-(5-cyclopentyl-4-ethyl-4,5-dihydro-[1,2,4]triazolo[4,3-f]pteridin-7-ylamino)-N-cyclopropyl-3-methoxybenzamide]	< 10
